From patent US7064120B2, “Tricyclic pyridyl carboxamides and derivatives thereof tocolytic oxytocin receptor antagonists” (Wyeth, priority 2001, dated 2006) come the findings set out here.

The term inhibition denotes the relative decrease from the control value, in per cent.

T1 sequence (P37288 whole entry): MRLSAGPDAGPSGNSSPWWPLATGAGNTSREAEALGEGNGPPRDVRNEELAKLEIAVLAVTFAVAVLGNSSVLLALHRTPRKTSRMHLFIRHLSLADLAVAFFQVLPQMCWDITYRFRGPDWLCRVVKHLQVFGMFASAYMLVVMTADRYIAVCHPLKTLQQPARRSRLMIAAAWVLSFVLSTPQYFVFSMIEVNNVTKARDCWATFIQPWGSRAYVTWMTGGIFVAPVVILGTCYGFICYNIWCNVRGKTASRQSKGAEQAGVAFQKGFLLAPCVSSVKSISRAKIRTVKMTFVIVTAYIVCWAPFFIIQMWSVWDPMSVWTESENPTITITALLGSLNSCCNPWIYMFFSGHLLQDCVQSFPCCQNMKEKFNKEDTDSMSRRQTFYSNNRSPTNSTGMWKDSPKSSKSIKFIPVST

The experiment concerns the target T1, human vasopressin V1a receptor subtype (Homo sapiens, UniProt P37288).
T1 construct: host or cells: CHO cells, stably transfected (pZeoSV vector for the Thibonnier line)
In words: Vasopressin binding in CHO cell membranes expressing human vasopressin V1a subtype receptors ([3H]Manning ligand radioligand binding). The note with it: 100 nM. How it is done: Vasopressin Binding in Chinese Hamster Ovary Cell Membranes Expressing Human Vasopressin V1a Subtype Receptors
The trypsin is removed by aspiration and the cells dislodged by tapping. Cell Culture medium (e.g. 30 mL for 1:30 split) is immediately added and mixed well to inactivate trypsin. 1 mL of detached cells is added to new culture flasks containing fresh cell culture medium (e.g., into 25 mL per T-150 flask), and mixed gently. The cells are incubated at 37° C. in 5% CO2. The medium is changed at 3 to 4 days interval (or as appropriate). […] All steps are done under sterile conditions.
The cells are washed twice gently with Hank's Balanced Salt solution (e.g,. use 10 mL per T-150 flask). […] The contents are transferred to centrifuge tubes (50 mL) kept in an ice bath. All subsequent steps are done at 4° C. The tubes are centrifuged at 300×g for 15 min (1380 rpm on SORVAL, Model RT6000D, using the rotor for 50 mL tubes). The supernatant is discarded and the cells suspended in homogenizing buffer(10 mM Tris-HCl containing 0.25 M sucrose and 1 mM EDTA, pH 7.4) ensuring that the volume of the buffer is about ten times the volume of the cell pellet. The cells are pooled into a centrifuge tube (50 mL) and homogenized with Polytron at setting 6 for 10 sec. The homogenate is transferred into a Potter-Elvjehm homogenizer and homogenized with 3 strokes. The homogenate is centrifuged at 1500×g for 10 min at 4° C. (3100 rpm using SORVAL, model RT6000D, using the rotor for 50 mL tubes). The pellet is discarded. The supernatant is centrifuged at 100,000×g for 60 min. at 4° C. (Beckman L8-80M ultracentrifuge; spin at 37,500 rpm with rotor type 70 Ti for 50 mL tubes; 38,000 rpm with type 80Ti for 15 mL tubes; or 35,800 rpm with rotor type 45Ti). The supernantant is discarded and the pellet suspended in 3 to 4 mL of Tris buffer (50 mM TRIS-HCl, pH 7.4). The protein content is estimated by the Bradford or Lowry method. The volume of the membrane suspension is adjusted with the membrane buffer (50 mM Tris-HCl containing 0.1% BSA and 0.1 mM PMSF) to give 3.0 mg/mL (or as appropriate) of protein. The membranes are aliquoted and stored at −70° C.
In wells of a 96-well format microtiter plate, is added 90, 110 or 130 μL (to make up a final volume of 200 μL) of assay buffer containing 50 mM of Tris-HCl (pH 7.4), BSA (heat inactivated, protease-free), […], 1 mg % aprotinin, 1 mg % leupeptin, 2 mg % 1,10-phenanthroline, 10 mg % trypsin inhibitor, and 0.1 mM PMSF. The inhibitors are added on the day of the experiment. The components are mixed at room temperature, and then kept in ice bath following adjustment of the pH to 7.4. […] 20 μL of 50% DMSO is added for Manning and other peptide ligands and the assay buffer volume is adjusted accordingly. To each well is added 50 μL of frozen membrane suspension thawed immediately prior to use and diluted in the assay buffer to the required concentration (equivalent to 25 to 50 μg of protein/well as needed). 20 μL of 8 nM [^3H]Manning ligand in the assay buffer, prepared just before use, is added, and incubated at room temperature for 60 min. shaking the plate on a mechanical shaker for the first 15 min. The incubation is stopped by rapid filtration of the plate contents followed by wash with ice-cold buffer (50 mM Tris-HCl, pH 7.4) using a cell harvester (Tomtek and Printed filtermat-B filter paper). The filter paper is thoroughly dried (7–12 min. in a microwave oven) and impregnated with MeltiLex B/H melt-on scintillation wax sheets and the radioactivity counted in a betaplate scintillation counter.
Binding data is either reported as percent inhibition at a certain concentration or if an IC50 was calculated, as a nanomolar concentration.
For the compound `COc1ccccc1-c1ccc(C(=O)N2Cc3ccc(C(=O)NCc4ccccn4)n3Cc3ccccc32)cc1C` [Example 24, 10-[(2′-Methoxy-2-methyl-[1,1′-biphenyl]-4-yl)carbonyl]-N-(2-pyridinylmethyl)-10,11-dihydro-5H-pyrrolo[2,1-c][1,4]benzodiazepine-3-carboxamide], the inhibition at 0.1 µM stood at 7%. For the compound `COc1cccc(-c2ccc(C(=O)N3Cc4ccc(C(=O)NCc5ccccn5)n4Cc4ccccc43)cc2C)c1` [Example 25, 10-[(3′-Methoxy-2-methyl-[1,1′-biphenyl]-4-yl)carbonyl]-N-(2-pyridinylmethyl)-10,11-dihydro-5H-pyrrolo[2,1-c][1,4]benzodiazepine-3-carboxamide], the inhibition at 0.1 µM is 21%. For `COc1ccccc1-c1ccc(C(=O)N2Cc3ccc(C(=O)NCc4ccccn4)n3Cc3ccccc32)cc1` [Example 26, 10-[(2′-Methoxy-[1,1′-biphenyl]-4-yl)carbonyl]-N-(2-pyridinylmethyl)-10,11-dihydro-5H-pyrrolo[2,1-c][1,4]benzodiazepine-3-carboxamide], the inhibition at 0.1 µM was 17%. For `Cc1ccccc1-c1ccc(C(=O)N2Cc3ccc(C(=O)NCc4ccccn4)n3Cc3ccccc32)cc1` [Example 27, 10-[(2′-Methyl-[1,1′-biphenyl]-4-yl)carbonyl]-N-(2-pyridinylmethyl)-10,11-dihydro-5H-pyrrolo[2,1-c][1,4]benzodiazepine-3-carboxamide], the inhibition at 0.1 µM was found to be 20%.

In the case of `COc1cc(C(=O)N2Cc3ccc(C(=O)NCc4ccccn4)n3Cc3ccccc32)ccc1-c1ccccc1C` [Example 28, 10-[(2-Methoxy-2′-methyl-[1,1′-biphenyl]-4-yl)carbonyl]-N-(2-pyridinylmethyl)-10,11-dihydro-5H-pyrrolo[2,1-c][1,4]benzodiazepine-3-carboxamide], the inhibition at 0.1 µM worked out at 28%.

Take `COc1cc(-c2ccccc2C)c(Cl)cc1C(=O)N1Cc2ccc(C(=O)NCc3ccccn3)n2Cc2ccccc21` [Example 29, 10-[(6-Chloro-3-methoxy-2′-methyl-[1,1′-biphenyl]-4-yl)carbonyl]-N-(2-pyridinylmethyl)-10,11-dihydro-5H-pyrrolo[2,1-c][1,4]benzodiazepine-3-carboxamide]: the inhibition at 0.1 µM amounted to 0%. As to `COc1cccc(-c2cc(OC)c(C(=O)N3Cc4ccc(C(=O)NCc5ccccn5)n4Cc4ccccc43)cc2Cl)c1` [Example 30, 10-[(6-Chloro-3,3′-dimethoxy-[1,1′-biphenyl]-4-yl)carbonyl]-N-(2-pyridinylmethyl)-10,11-dihydro-5H-pyrrolo[2,1-c][1,4]benzodiazepine-3-carboxamide], the inhibition at 0.1 µM is -7%. The result for `COc1cc(C(=O)N2Cc3ccc(C(=O)NCc4ccccn4)n3Cc3ccccc32)ccc1-c1cccc2ccccc12` [Example 31, 10-[3-Methoxy-4-(naphthalen-1-yl)benzoyl]-N-(2-pyridinylmethyl)-10,11-dihydro-5H-pyrrolo[2,1-c][1,4]benzodiazepine-3-carboxamide] reads 6%; that for `COc1ccccc1-c1ccc(C(=O)N2Cc3ccc(C(=O)NCc4ccccn4)n3Cc3ccccc32)cc1OC` [Example 32, 10-[(2,2′-Dimethoxy-[1,1′-biphenyl]-4-yl)carbonyl]-N-(2-pyridinylmethyl)-10,11-dihydro-5H-pyrrolo[2,1-c][1,4]benzodiazepine-3-carboxamide], 13%; that for `COc1cccc(-c2ccc(C(=O)N3Cc4ccc(C(=O)NCc5ccccn5)n4Cc4ccccc43)cc2OC)c1` [Example 33, 10-[(2,3′-Dimethoxy-[1,1′-biphenyl]-4-yl)carbonyl]-N-(2-pyridinylmethyl)-10,11-dihydro-5H-pyrrolo[2,1-c][1,4]benzodiazepine-3-carboxamide], 23%. The result for `O=C(NCc1ccccn1)c1ccc2n1Cc1ccccc1N(C(=O)c1ccc(-c3cccc4ccccc34)cc1Cl)C2` [Example 34, 10-[2-Chloro-4-(naphthalen-1-yl)benzoyl]-N-(2-pyridinylmethyl)-10,11-dihydro-5H-pyrrolo[2,1-c][1,4]benzodiazepine-3-carboxamide] reads 5%. In the case of `Cc1cc(C(=O)N2Cc3ccc(C(=O)NCc4ccccn4)n3Cc3ccccc32)ccc1-c1ccccc1C(F)(F)F` [Example 35, 10-{[2-Methyl-2′-trifluoromethyl-[1,1′-biphenyl]-4-yl]carbonyl}-N-(2-pyridinylmethyl)-10,11-dihydro-5H-pyrrolo[2,1-c][1,4]benzodiazepine-3-carboxamide] it was 4%; in that of `COc1ccccc1-c1ccc(C(=O)N2Cc3ccc(C(=O)NCc4cccnc4)n3Cc3ccccc32)cc1C` [Example 36, 10-[(2′-Methoxy-2-methyl-[1,1′-biphenyl]-4-yl)carbonyl]-N-(3-pyridinylmethyl)-10,11-dihydro-5H-pyrrolo[2,1-c][1,4]benzodiazepine-3-carboxamide], -3%.

Regarding `Cc1ccccc1-c1ccc(C(=O)N2Cc3ccc(C(=O)NCc4cccnc4)n3Cc3ccccc32)cc1C` [Example 37, 10-[(2,2′-Dimethyl-[1,1′-biphenyl]-4-yl)carbonyl]-N-(3-pyridinylmethyl)-10,11-dihydro-5H-pyrrolo[2,1-c][1,4]benzodiazepine-3-carboxamide], the inhibition at 0.1 µM was determined as 12%. As for `COc1cccc(-c2ccc(C(=O)N3Cc4ccc(C(=O)NCc5cccnc5)n4Cc4ccccc43)cc2C)c1` [Example 38, 10-[(3′-Methoxy-2-methyl-[1,1′-biphenyl]-4-yl)carbonyl]-N-(3-pyridinylmethyl)-10,11-dihydro-5H-pyrrolo[2,1-c][1,4]benzodiazepine-3-carboxamide], the inhibition at 0.1 µM came to 0%.

On to `COc1ccccc1-c1ccc(C(=O)N2Cc3ccc(C(=O)NCc4cccnc4)n3Cc3ccccc32)cc1` [Example 39, 10-[(2′-Methoxy-[1,1′-biphenyl]-4-yl)carbonyl]-N-(3-pyridinylmethyl)-10,11-dihydro-5H-pyrrolo[2,1-c][1,4]benzodiazepine-3-carboxamide], for which the inhibition at 0.1 µM stood at 10%. For the compound `Cc1ccccc1-c1ccc(C(=O)N2Cc3ccc(C(=O)NCc4cccnc4)n3Cc3ccccc32)cc1` [Example 40, 10-[(2′-Methyl-[1,1′-biphenyl]-4-yl)carbonyl]-N-(3-pyridinylmethyl)-10,11-dihydro-5H-pyrrolo[2,1-c][1,4]benzodiazepine-3-carboxamide], the inhibition at 0.1 µM stood at 15%. `COc1cc(C(=O)N2Cc3ccc(C(=O)NCc4cccnc4)n3Cc3ccccc32)ccc1-c1ccccc1C` [Example 41, 10-[(2-Methoxy-2′-methyl-[1,1′-biphenyl]-4-yl)carbonyl]-N-(3-pyridinylmethyl)-10,11-dihydro-5H-pyrrolo[2,1-c][1,4]benzodiazepine-3-carboxamide]: the inhibition at 0.1 µM came out at 20%.

As for `COc1cc(-c2ccccc2C)c(Cl)cc1C(=O)N1Cc2ccc(C(=O)NCc3cccnc3)n2Cc2ccccc21` [Example 42, 10-[(6-Chloro-3-methoxy-2′-methyl-[1,1′-biphenyl]-4-yl)carbonyl]-N-(3-pyridinylmethyl)-10,11-dihydro-5H-pyrrolo[2,1-c][1,4]benzodiazepine-3-carboxamide], the inhibition at 0.1 µM is -11%. `COc1cccc(-c2cc(OC)c(C(=O)N3Cc4ccc(C(=O)NCc5cccnc5)n4Cc4ccccc43)cc2Cl)c1` [Example 43, 10-[(6-Chloro-3,3′-dimethoxy-[1,1′-biphenyl]-4-yl)carbonyl]-N-(3-pyridinylmethyl)-10,11-dihydro-5H-pyrrolo[2,1-c][1,4]benzodiazepine-3-carboxamide]: the inhibition at 0.1 µM was -6%.
